According to patent publication US20210068659A1, “Use of Octafluorocyclobutane for Lung Imaging” (Lakehead University, priority 2019, published 2021):

Experiments:
[1] = Specific Absorption Rate (SAR) / scan safety inferred from the longer spin-lattice relaxation time; conditions: summary statement
Excerpt: While the spin-lattice relaxation time is 60% longer for OFCB compared to PFP, which limits the potential number of signal averages, the longer spin-lattice relaxation means that there are a smaller number of radio pulses with OFCB. This means that the Specific Absorption Rate (SAR) is lower for OFCB-O2 scans. […] The lower SAR value of OFCB scans means that ^19F OFCB lung MRI is safer for patients than MRI scans acquired using other inert fluorinated gases.

[2] = Measured relaxation parameters (19F MRI relaxation times) of pure gases and gas-O2 mixtures in vitro; type: physicochemical; conditions: for T2′ / T1: in vitro, pure gas or gas-O2 breathing mixture; for T1: spin-lattice relaxation time
Excerpt: The relaxation times for OFCB-O2 mixture In Vivo should be measured experimentally. We measured the relaxation times for pure OFCB and OFCB-O2 mixture in vitro.
While we were not first who measured the relaxation times for pure OFCB, to our knowledge, we are the first who characterized the OFCB-O2 breathing mixture.

| SMILES | safer compared to PFP [1] | spin-lattice relaxation time longer compared to PFP ([2]; OFCB compared to PFP) | T2′ [2] | T1 [2] |
| --- | --- | --- | --- | --- |
| FC1(F)C(F)(F)C(F)(F)C1(F)F [OFCB, octafluorocyclobutane] | 60% | 60% | 10.5 ± 1.8 ms | 27.9 ± 0.8 ms |
| FC(F)(F)C(F)(F)C(F)(F)F [PFP, perfluoropropane, reference compound] |  |  | 6.26 ± 0.27 ms | 18.6 ± 0.4 ms |
